This is an account of results in patent publication US12202804B2, “In vitro or ex vivo methods for screening a quinoline derivative” (ABIVAX, priority 2014, dated 2025).

The test system of test [1] is miR-124. As to the kind of experiment: Modulation of miR-124 expression in PBMCs (qPCR, relative quantification). The test is classed as cell-based, human. The settings on record: for fold induction at 5 µM / fold induction at 10 µM: Homo sapiens, PBMC, 144 h, read-out: Fold-change compared to DMSO treated cells (Relative quantification) Mean; for fold induction at 5 µM / Fold-change compared to DMSO treated cells (Relative quantification) Mean / fold induction at 10 µM: miR-124 expression, PBMCs of healthy donors; for fold induction at 5 µM: quinoline derivatives 5 μM, extraction day 6, mean over 1 to 7 donors; for effect on the overexpression of miR-124 in PBMCs: known antiretrovirals, PBMCs from four donors; for Fold-change compared to DMSO treated cells (Relative quantification) Mean / fold induction at 10 µM: antiretroviral drugs 10 μM, extraction day 6, 4 donors. On the procedure: Briefly, 60-70 mL of buffy-coat are poured in a flask of 175 cm^2, and the volume is adjusted to 300 mL using PBS in order to obtain a dilution of about 5-fold of the buffy coat. […] The lymphocyte ring is recovered from the Falcon™ tube with a transfer pipette (Pastette®) and then washed with PBS using centrifugation for 10 minutes at 290 rcf and at ambient temperature until the supernatant becomes clear.
Cells are incubated for 48 hours at 37° C. under 5% CO2.
Six-well plates are used for the screening. Within each well comprising 3.10^6 cell/4 ml RPMI supplemented with 10% fetal calf serum and 40 U/mL IL-2 (Peprotech Ref 200-02) are added screened molecules. 100% DMSO (4 μL) is added to the well and tested as a negative control.
Each tested condition is set up as described here below and the final corresponding volume is adjusted accordingly in the well: • 1) Quinoline derivatives in 100% DMSO—(5 μM and final volume 4 μL) • 2) Antiretroviral drugs: Maraviroc, Efavirenz, Darunavir, AZT (10 μM for all—final volume 4 μL).
The wells are incubated for three days at 37° C. under 5% CO2 Medium is changed (Day 3) according to standard protocols. Briefly, plates are centrifugated at 290 rcf for 5 minutes and 3 mL of supernatant is removed. 3 mL of RPMI supplemented with 10% fetal calf serum and 40 U/mL IL-2 is then added with 3 μL of a stock solution of screened molecule at 5 mM in 100% DMSO or 3 μL of 100% DMSO as a negative control.
Cells are recovered within Falcon™ tubes of 15 mL, centrifugated at 290 rcf for 5 minutes, and then washed in 10 mL PBS and further centrifugated at 290 rcf for 5 minutes. Cells are then resuspended in 1 mL PBS and counted.
6×10^6 cells are recovered and centrifugated at 290 rcf for 5 minutes.
The miRNA extraction is achieved using the protocol from Macherey Nagel Nucleospin® miRNA extraction kit using an elution volume for RNAs of 50 μL and miRNAs of 30 μL, and further stored at −20° C.
The reverse transcription step is followed for 12 μL of miRNA using the miScript RT II reverse transcription (RT) kit from QIAGEN© using the miScript HiSpec buffer, and further stored at −20° C.
The quantitative PCR step is achieved using the QIAGEN© miScript SYBR® Green PCR kit and miScript Primer Assays according to the manufacturer's protocol.
The reaction is repeated in triplicates in a 384-well plate according to the manufacturer's protocol on a LightCycler® […] Roche Real-Time PCR system. Cycling conditions are also set up according to the manufacturer's protocol: […]
Background: Quantitative PCR measures a nucleic acid by following its amplification.

The subject of test [2] is (DSS-) induced colitis model. Description: Dextran Sulphate Sodium (DSS-) induced colitis mouse model. In kind it is in vivo, C57BL/6 mice. On the procedure: A commonly used mouse model of inflammatory bowel disease is the Dextran Sulphate Sodium (DSS-) induced colitis model. Typical histological changes of acute DSS-colitis are mucin depletion, epithelial degeneration and the eventual destruction of the mucosal barrier which leads to inflammation and colitis.
Three groups of 6-week-old C57BL/6 mice (8 mice each) received DSS administration in the drinking water (2.5%) for 9 days (FIGS. 1-2). Weight loss and water consumption was measured every day. The latter was determined by measuring the volume loss of the drinking water in the respective devices. The mice were treated by gavage with 200 ul of 0.5 MC alone (DSS+MC group) or together with 40 mg/kg of compound 24 (DSS+MC+24 group). At the point when control mice have loosed up to 20% of their weight (DSS), the treatment with DSS is stopped and replaced with drinking water. The other treatments were continued for 21 days.
Three groups of 16-week-old C57BL/6 mice (7 mice each) received 2.5% DSS in drinking water (FIG. 3). The mice were treated by gavage with 200 ul of 0.5 MC alone (DSS+MC group) or together with 40 mg/kg of compound 24 (DSS+MC+24 group). The mice were treated with DSS for 6 days and at the point when control mice have loosed up to 15% of their weight (DSS), all the mice were euthanized and colon were taken for further analyses.
Colons were measured using a ruler and for histological analysis the entire colon was prepared according to the Swiss roll procedure (Whittem el al.; “Murine Colitis Modeling using Dextran Sulfate Sodium (DSS)”, J Vis Exp 2010 (35) 1652) fixed with formaldehyde and embedded in paraffin. 4 μm sections were de-paraffinized and stained with hematoxylin and eosin and analyzed for lesion size and other alterations (FIGS. 4-6). We compared untreated and treated mice during the DSS-cycle with quinoline derivatives suspended in methylcellulose or methylcellulose (MC) only. Statistical analysis was performed using Mann-Whitney test, asterisk indicates a significant difference ([…]), two asterisks indicate a very significant difference ([…])

The test system of test [3] is Collagen induced arthritis model. Description: Collagen induced arthritis mouse model. The test is classed as in vivo, DBA/1 mice. The procedure: Groups of 9 to -10-week-old DBA/1 mice were immunized intradermally with bovine collagen type II emulsified in a 1:1 proportion with complete Freund's adjuvant. Mice were challenged 21 days after the first immunization and the phenotypic appearance of arthritis was evaluated by monitoring every second day the thickness of each hind paw ankle joint thickness was measured using a dial caliper (0- to 10-mm) test gauge using a thickness gage. Mice were treated daily for two weeks with quinoline derivatives candidates suspended in methylcellulose or methylcellulose (MC) only and the development of the disease was then monitored. Statistical analysis was performed using Mann-Whitney test, asterisk indicates a significant difference ([…]).

On to `CN(c1cc(C(F)(F)F)ccn1)c1ccc2cccc(Cl)c2n1` [Compound 10, 8-chloro-N-methyl-N-(4-(trifluoromethyl)pyridin-2-yl)quinolin-2-amine], for which the fold induction at 5 µM in test [1] turned out to be 21.1.

In the case of `Cc1cc2c(N)ccc(Cl)c2nc1Nc1ccc(OC(F)(F)F)c(Cl)c1` [Compound 27], in test [1], the fold induction at 5 µM was found to be 1.42.

As to Maraviroc [reference compound], in test [1], the “effect on the overexpression of miR-124 in PBMCs” value (“effect on the overexpression” for short) is given as “none of the known antiretroviral (Maraviroc, Effavirenz, Darunavir or AZT) has any significant effect” and the “Fold-change compared to DMSO treated cells (Relative quantification) Mean” value turned out to be 0.73.

`FC(F)(F)c1ccnc(Nc2ccc3c(OCCCN4CCCCC4)ccc(Cl)c3n2)c1` [Compound 8, 8-chloro-5-(3-(piperidin-1-yl)propoxy)-N-(4-(trifluoromethyl)pyridin-2-yl)quinolin-2-amine]: in test [1], the fold induction at 5 µM was 7.97.

Consider `Cc1cn([C@H]2C[C@H](N=[N+]=[N-])[C@@H](CO)O2)c(=O)[nH]c1=O` [AZT, reference compound], for which, in test [1], the “effect on the overexpression” value is reported as “none of the known antiretroviral (Maraviroc, Effavirenz, Darunavir or AZT) has any significant effect” and the “Fold-change compared to DMSO treated cells (Relative quantification) Mean” value is reported as 0.90.

`Clc1cccc2ccc(Nc3cnccn3)nc12` [Compound 45]: in test [1], the fold induction at 5 µM came out at 34.2.

In the case of `FC(F)(F)c1ccnc(Nc2cc(NCCN3CCOCC3)c3cccc(Cl)c3n2)c1` [Compound 11, 8-chloro-N^4-(2-morpholinoethyl)-N^2-(4-(trifluoromethyl)pyridin-2-yl)quinoline-2,4-diamine], in test [1], the fold induction at 5 µM is 17.4.

Consider `FC(F)(F)c1ccnc(Nc2ccc3cccc(Cl)c3n2)c1` [Compound 12], for which, in test [1], the fold induction at 5 µM worked out at 16.3.

For the molecule `Cc1ccnc(Nc2ccc3cccc(Cl)c3n2)c1N` [Compound 4], in test [1], the fold induction at 5 µM worked out at 24.4.

In the case of `Cc1ccnc(Nc2ccc3cccc(Cl)c3n2)c1` [Compound 1], in test [1], the fold induction at 5 µM turned out to be 32.

Regarding `Nc1ccc(Cl)c2nc(Nc3cc(C(F)(F)F)ccn3)ccc12` [Compound 7], the fold induction at 5 µM in test [1] was determined as 7.54.

With `Nc1ccc(Cl)c2nc(Nc3ccc(OC(F)(F)F)c(Cl)c3)ccc12` [Compound 26], the fold induction at 5 µM in test [1] turned out to be 6.13.

With `O=C1Nc2ccc(Cl)cc2[C@@](C#CC2CC2)(C(F)(F)F)O1` [Effavirenz, Efavirenz, reference compound], in test [1], the fold induction at 10 µM amounted to 0.46 and the “effect on the overexpression” value is “none of the known antiretroviral (Maraviroc, Effavirenz, Darunavir or AZT) has any significant effect”.

Consider `FC(F)(F)c1ccnc(Nc2ccc3c(OCCN4CCCCC4)ccc(Cl)c3n2)c1` [Compound 6], for which the fold induction at 5 µM in test [1] was 30.9.

Consider `CC(C)CN(C[C@@H](O)[C@H](Cc1ccccc1)NC(=O)O[C@H]1CO[C@H]2OCC[C@H]21)S(=O)(=O)c1ccc(N)cc1` [Darunavir, reference compound], for which, in test [1], the fold induction at 10 µM was 1.08 and the “effect on the overexpression” value was “none of the known antiretroviral (Maraviroc, Effavirenz, Darunavir or AZT) has any significant effect”.

On to `Nc1cc(OC(F)(F)F)ccc1Nc1ccc2cccc(Cl)c2n1` [Compound 25], for which, in test [1], the fold induction at 5 µM came out at 14.3.

Turning to `FC(F)(F)c1ccnc(Nc2ccc3c(OCCN4CCOCC4)ccc(Cl)c3n2)c1` [Compound 5], the fold induction at 5 µM in test [1] amounted to 26.8.

`FC(F)(F)Oc1ccc(Oc2ccc3cccc(Cl)c3n2)cc1` [Compound 48, 8-chloro-2-(4-(trifluoromethoxy)phenoxy)quinoline]: in test [1], the fold induction at 5 µM is 24.

`FC(F)(F)Oc1ccc(N(CCCN2CCCCC2)c2ccc3cccc(Cl)c3n2)cc1` [Compound 30, 8-chloro-N-(3-(piperidin-1-yl)propyl)-N-(4-(trifluoromethoxy)phenyl)quinolin-2-amine]: the fold induction at 5 µM in test [1] worked out at 9.88.

`FC(F)(F)Oc1ccc(Nc2ccc3cccc(Cl)c3n2)cc1` [Compound 24, 8-chloro-N-[4-(trifluoromethoxy)phenyl]quinolin-2-amine]: the “weight loss in average” value in test [2] (after 5 days of DSS-administration, 40 mg/kg by gavage in MC, MC or untreated mice 10% to 20%) is recorded as less than 1%. For the same molecule, the “alterations in lymphoid organs such as Peyer's Patches” value in test [2] (after two DSS-cycles) was “decrease of alterations in lymphoid organs such as Peyer's Patches”. For the same molecule, the “average size of the lesion area” value was 2.1 mm^2 in test [2] (colon histology (FIG. 5), versus 8.4 in MC only treated mice) and 3.8 mm^2 in test [2] (mice exposed to two DSS-cycles, vs 12.2 in MC only treated mice). In test [2] (colon histology, compared between cohorts (FIG. 4)), the number of lesions entry is reported as “comparable number of lesions”. In addition, the water consumption result in test [2] (drug treated mice, DSS model, 40 mg/kg by gavage) is “higher water consumption”. For the same molecule, the “weight loss during the second administration of DSS” value in test [2] (second cycle of DSS, 40 mg/kg by gavage) is on record as “significantly control weight loss”. In test [3] (hind paw ankle joint thickness, MC only treated about 2.2 mm (FIG. 6)), this molecule yielded a swelling of joints of 1.9 mm. Also, the “mice that displayed signs of inflammation” value in test [3] (treated daily for two weeks, 8 out of 10 MC treated mice developed disease) is listed as “one out of ten”. The fold induction at 5 µM in test [1] is 32.5.

For `COc1ccc(Nc2ccc3cccc(Cl)c3n2)cc1` [Compound 23], the fold induction at 5 µM in test [1] was determined as 45.1.

As for `FC(F)(F)c1ccc(Nc2ccc3cccc(Cl)c3n2)nc1` [Compound 2], in test [1], the fold induction at 5 µM is 66.7.

`FC(F)(F)c1ccnc(Oc2ccc3cccc(Cl)c3n2)c1` [Compound 46, 8-chloro-2-((4-(trifluoromethyl)pyridin-2-yl)oxy)quinoline]: the fold induction at 5 µM in test [1] came out at 6.23.

With `CN(c1ccc(OC(F)(F)F)cc1)c1ccc2cccc(Cl)c2n1` [Compound 28, 8-chloro-N-methyl-N-(4-(trifluoromethoxy)phenyl)quinolin-2-amine], the fold induction at 5 µM in test [1] came out at 22.2.

As to `Fc1ccc(Nc2ccc3cccc(Cl)c3n2)nc1` [Compound 3], the fold induction at 5 µM in test [1] came to 48.5.

With `FC(F)(F)c1ccnc(Nc2cc(NCCCN3CCCCC3)c3cccc(Cl)c3n2)c1` [Compound 9, 8-chloro-N^4-(3-(piperidin-1-yl)propyl)-N^2-(4-(trifluoromethyl)pyridin-2-yl)quinoline-2,4-diamine], the fold induction at 5 µM in test [1] was 112.
